Experimental data: PubChem BioAssay AID2060483 (Molecular Pharmacology Branch, DTP, NCI, 2025)

Tested on: K24384-001-R-PDC complex spheroids, viability
Experiment: Anticancer human tumor K24384-001-R-PDC patient-derived pancreatic adenocarcinoma cell line growth inhibition [GQUAD]
Conditions: for IC50: curve of first compound; for viability, T/C: stronger effect = lower value
Method in brief: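 Multi-cell-type spheroids of tumor cells with HUVEC and mesenchymal stem cells, treated with drug combinations. Concentrations descend in half-log steps from near clinical Cmax, or from 10 microM where Cmax is unknown; viability read-out.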

[1] = second compound 0.0316 µM, first compound 0.0316 µM
[2] = second compound 0.0316 µM, first compound 0.316 µM
[3] = second compound 0.1 µM, first compound 0.0316 µM
[4] = second compound 0.1 µM, first compound 0.316 µM
[5] = second compound 0.316 µM, first compound 0.0316 µM
[6] = second compound 0.316 µM, first compound 0.316 µM
[7] = second compound 1 µM, first compound 0.0316 µM
[8] = second compound 1 µM, first compound 0.316 µM
[9] = second compound 3.16 µM, first compound 0.0316 µM
[10] = second compound 3.16 µM, first compound 0.316 µM
[11] = second compound 10 µM, first compound 0.0316 µM
[12] = second compound 10 µM, first compound 0.316 µM
[13] = second compound 0.0316 µM, first compound 0.1 µM
[14] = second compound 0.0316 µM, first compound 1 µM
[15] = second compound 0.0316 µM, first compound 3.16 µM
[16] = second compound 0.0316 µM, first compound 10 µM
[17] = second compound 0.1 µM, first compound 0.1 µM
[18] = second compound 0.1 µM, first compound 1 µM
[19] = second compound 0.1 µM, first compound 3.16 µM
[20] = second compound 0.1 µM, first compound 10 µM
[21] = second compound 0.316 µM, first compound 0.1 µM
[22] = second compound 0.316 µM, first compound 1 µM
[23] = second compound 0.316 µM, first compound 3.16 µM
[24] = second compound 0.316 µM, first compound 10 µM
[25] = second compound 1 µM, first compound 0.1 µM
[26] = second compound 1 µM, first compound 1 µM
[27] = second compound 1 µM, first compound 3.16 µM
[28] = second compound 1 µM, first compound 10 µM
[29] = second compound 3.16 µM, first compound 0.1 µM
[30] = second compound 3.16 µM, first compound 1 µM
[31] = second compound 3.16 µM, first compound 3.16 µM
[32] = second compound 3.16 µM, first compound 10 µM
[33] = second compound 10 µM, first compound 0.1 µM
[34] = second compound 10 µM, first compound 1 µM
[35] = second compound 10 µM, first compound 3.16 µM
[36] = second compound 10 µM, first compound 10 µM
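Further: spheroids exposed to compounds for seven days.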

Work on `CCc1c2c(nc3ccc(O)cc13)-c1cc3c(c(=O)n1C2)COC(=O)[C@]3(O)CC` + CN(C)c1ccc(Nc2c3ccc(NC(=O)CCN4CCCC4)cc3nc3cc(NC(=O)CCN4CCCC4)ccc23)cc1 yielded an IC50 (second compound 0.0316 µM) of 7.33 nM, an IC50 (second compound 0.1 µM) of 8.91 nM and an IC50 (second compound 0.316 µM) of 5.68 nM. The IC50 (second compound 1 µM) was 5.64 nM, the IC50 (second compound 3.16 µM) was 3.47 nM and the IC50 (second compound 10 µM) was 16.2 nM. The viability, T/C (second compound 0.0316 µM, first compound 0.000999 µM) was 80.2%, the viability, T/C (second compound 0.0316 µM, first compound 0.00316 µM) was 78.2% and the viability, T/C (second compound 0.0316 µM, first compound 0.00999 µM) was 39.6%. For the same molecule, the viability, T/C [1] was 32.2%, the viability, T/C (second compound 0.0316 µM, first compound 0.0999 µM) was 35.4% and the viability, T/C [2] was 30.3%. It also gave a viability, T/C (second compound 0.1 µM, first compound 0.000999 µM) of 69.6%, a viability, T/C (second compound 0.1 µM, first compound 0.00316 µM) of 62.7% and a viability, T/C (second compound 0.1 µM, first compound 0.00999 µM) of 49.7%. It also gave a viability, T/C [3] of 34.2%, a viability, T/C (second compound 0.1 µM, first compound 0.0999 µM) of 36.1% and a viability, T/C [4] of 32.3%. For the same molecule, the viability, T/C (second compound 0.316 µM, first compound 0.000999 µM) was 73.2%, the viability, T/C (second compound 0.316 µM, first compound 0.00316 µM) was 65.2% and the viability, T/C (second compound 0.316 µM, first compound 0.00999 µM) was 35.2%. It also gave a viability, T/C [5] of 42.8%, a viability, T/C (second compound 0.316 µM, first compound 0.0999 µM) of 33.6% and a viability, T/C [6] of 26.3%. For the same molecule, the viability, T/C (second compound 1 µM, first compound 0.000999 µM) was 69.8%, the viability, T/C (second compound 1 µM, first compound 0.00316 µM) was 58.2% and the viability, T/C (second compound 1 µM, first compound 0.00999 µM) was 39.9%. For the same molecule, the viability, T/C [7] was 39.9%, the viability, T/C (second compound 1 µM, first compound 0.0999 µM) was 28.6% and the viability, T/C [8] was 28%. For the same molecule, the viability, T/C (second compound 3.16 µM, first compound 0.000999 µM) was 82.3%, the viability, T/C (second compound 3.16 µM, first compound 0.00316 µM) was 51.2% and the viability, T/C (second compound 3.16 µM, first compound 0.00999 µM) was 37%. The viability, T/C [9] was 37.5%, the viability, T/C (second compound 3.16 µM, first compound 0.0999 µM) was 34% and the viability, T/C [10] was 30.9%. It also gave a viability, T/C (second compound 10 µM, first compound 0.000999 µM) of 70.7%, a viability, T/C (second compound 10 µM, first compound 0.00316 µM) of 61.2% and a viability, T/C (second compound 10 µM, first compound 0.00999 µM) of 59.4%. For the same molecule, the viability, T/C [11] was 37.3%, the viability, T/C (second compound 10 µM, first compound 0.0999 µM) was 36.6% and the viability, T/C [12] was 32.8%.
With `COc1cccc2c1C(=O)c1c(O)c3c(c(O)c1C2=O)CC(O)(C(=O)CO)CC3OC1CC(N)C(O)C(C)O1` (stereo unspecified) + Cc1cnc(CNC(=O)c2c(=O)c3ccc(N4CCCN(C)CC4)nc3n3c2sc2ccccc23)cn1 the IC50 (second compound 0.0316 µM) was 280 nM, the IC50 (second compound 0.1 µM) was 167 nM and the IC50 (second compound 0.316 µM) was 85.2 nM. For the same molecule, the IC50 (second compound 1 µM) was < 31.6 nM, the IC50 (second compound 3.16 µM) was < 31.6 nM and the IC50 (second compound 10 µM) was < 31.6 nM. The viability, T/C [1] was 74.3%, the viability, T/C [13] was 62.1% and the viability, T/C [2] was 50.3%. It also gave a viability, T/C [14] of 17.6%, a viability, T/C [15] of 5.43% and a viability, T/C [16] of 5.41%. The viability, T/C [3] was 71.2%, the viability, T/C [17] was 55% and the viability, T/C [4] was 42.7%. It also gave a viability, T/C [18] of 18.8%, a viability, T/C [19] of 6.08% and a viability, T/C [20] of 5.63%. For the same molecule, the viability, T/C [5] was 58.2%, the viability, T/C [21] was 48% and the viability, T/C [6] was 33.3%. For the same molecule, the viability, T/C [22] was 20.6%, the viability, T/C [23] was 4.64% and the viability, T/C [24] was 6.62%. For the same molecule, the viability, T/C [7] was 35.4%, the viability, T/C [25] was 46.6% and the viability, T/C [8] was 35.1%. It also gave a viability, T/C [26] of 19.4%, a viability, T/C [27] of 2.42% and a viability, T/C [28] of 3.74%. For the same molecule, the viability, T/C [9] was 40%, the viability, T/C [29] was 44.3% and the viability, T/C [10] was 36.1%. It also gave a viability, T/C [30] of 18.7%, a viability, T/C [31] of 0.26% and a viability, T/C [32] of 1.49%. For the same molecule, the viability, T/C [11] was 33.3%, the viability, T/C [33] was 25.9% and the viability, T/C [12] was 24.4%. It also gave a viability, T/C [34] of 0.41%, a viability, T/C [35] of 0.26% and a viability, T/C [36] of 0.2%.
`CC1COCCN1c1cc(C2(O)CC3CCC(C2)O3)c2cnn(-c3ccn[nH]3)c2n1` (stereo unspecified) + Cc1cnc(CNC(=O)c2c(=O)c3ccc(N4CCCN(C)CC4)nc3n3c2sc2ccccc23)cn1 was tested, and the IC50 (second compound 0.0316 µM) was 33.3 nM, the IC50 (second compound 0.1 µM) was < 31.6 nM and the IC50 (second compound 0.316 µM) was < 31.6 nM. For the same molecule, the IC50 (second compound 1 µM) was < 31.6 nM, the IC50 (second compound 3.16 µM) was < 31.6 nM and the IC50 (second compound 10 µM) was < 31.6 nM. For the same molecule, the viability, T/C [1] was 51.9%, the viability, T/C [13] was 39.6% and the viability, T/C [2] was 33.7%. The viability, T/C [14] was 25.1%, the viability, T/C [15] was 26.4% and the viability, T/C [16] was 12.3%. The viability, T/C [3] was 43.4%, the viability, T/C [17] was 37.5% and the viability, T/C [4] was 31.1%. It also gave a viability, T/C [18] of 32.4%, a viability, T/C [19] of 26.3% and a viability, T/C [20] of 10.8%. For the same molecule, the viability, T/C [5] was 40.6%, the viability, T/C [21] was 37.8% and the viability, T/C [6] was 31%. It also gave a viability, T/C [22] of 31.9%, a viability, T/C [23] of 23.6% and a viability, T/C [24] of 10.8%. For the same molecule, the viability, T/C [7] was 39.2%, the viability, T/C [25] was 42.2% and the viability, T/C [8] was 31.2%. For the same molecule, the viability, T/C [26] was 26.7%, the viability, T/C [27] was 18.1% and the viability, T/C [28] was 8.33%. The viability, T/C [9] was 42.2%, the viability, T/C [29] was 35.7% and the viability, T/C [10] was 29.5%. It also gave a viability, T/C [30] of 27.2%, a viability, T/C [31] of 16.4% and a viability, T/C [32] of 8.63%. For the same molecule, the viability, T/C [11] was 27.5%, the viability, T/C [33] was 20.4% and the viability, T/C [12] was 23.7%. It also gave a viability, T/C [34] of 19.4%, a viability, T/C [35] of 6.65% and a viability, T/C [36] of 0.55%.
